Literature values in PubChem BioAssay AID1259409 (Chemical Carcinogenesis Research Information System (CCRIS), 2018).

Test system: rodent chemically induced tumor inhibition, incidence and multiplicity
Test: CCRIS tumor inhibitor studies

## C#Cc1ccc2ccc3cccc4ccc1c2c34
Carcinogen: 7,12-DIMETHYLBENZ[A]ANTHRACENE, 57-97-6, Dose [Inhibitor]: 0, 0.044 NMOL IN 0.2 ML ACETONE APPLIED TO BACK ONCE 5 MIN PRIOR TO CARCINOGEN DOSE (STUDY DURATION: 26 WK), Route [Inhibitor]: DERMAL, Species: MOUSE, Strain/Sex: SENCAR/FEMALE, Target Tissue: Type of Lesion: SKIN: PAPILLOMA, Dose [Carcinogen]: 10 NMOL IN 0.2 ML ACETONE APPLIED TO BACK ONCE.
  tumour outcome (control, treated, inhibition, significance): 100%, 93%, 7%, not calculated
Carcinogen: 7,12-DIMETHYLBENZ[A]ANTHRACENE, 57-97-6, Dose [Inhibitor]: 0, 0.44 NMOL IN 0.2 ML ACETONE APPLIED TO BACK ONCE 5 MIN PRIOR TO CARCINOGEN DOSE (STUDY DURATION: 20 WK), Route [Inhibitor]: DERMAL, Species: MOUSE, Strain/Sex: SENCAR/FEMALE, Target Tissue: Type of Lesion: SKIN: PAPILLOMA, Dose [Carcinogen]: 10 NMOL IN 0.2 ML ACETONE APPLIED TO BACK ONCE.
  tumour outcome (control, treated, inhibition, significance): 100%, 50%, 50%, not calculated
Carcinogen: 7,12-DIMETHYLBENZ[A]ANTHRACENE, 57-97-6, Dose [Inhibitor]: 0, 0.44 NMOL IN 0.2 ML ACETONE APPLIED TO BACK ONCE 5 MIN PRIOR TO CARCINOGEN DOSE (STUDY DURATION: 26 WK), Route [Inhibitor]: DERMAL, Species: MOUSE, Strain/Sex: SENCAR/FEMALE, Target Tissue: Type of Lesion: SKIN: PAPILLOMA, Dose [Carcinogen]: 10 NMOL IN 0.2 ML ACETONE APPLIED TO BACK ONCE.
  outcome: 100%, 100%, 0, not calculated
Carcinogen: 7,12-DIMETHYLBENZ[A]ANTHRACENE, 57-97-6, Dose [Inhibitor]: 0, 4.4 NMOL IN 0.2 ML ACETONE APPLIED TO BACK ONCE 5 MIN PRIOR TO CARCINOGEN DOSE (STUDY DURATION: 26 WK), Route [Inhibitor]: DERMAL, Species: MOUSE, Strain/Sex: SENCAR/FEMALE, Target Tissue: Type of Lesion: SKIN: PAPILLOMA, Dose [Carcinogen]: 10 NMOL IN 0.2 ML ACETONE APPLIED TO BACK ONCE.
  tumour outcome (control, treated, inhibition, significance): 100%, 83%, 17%, not calculated
Carcinogen: 7,12-DIMETHYLBENZ[A]ANTHRACENE, 57-97-6, Dose [Inhibitor]: 0, 22 NMOL IN 0.2 ML ACETONE APPLIED TO BACK ONCE 5 MIN PRIOR TO CARCINOGEN DOSE (STUDY DURATION: 26 WK), Route [Inhibitor]: DERMAL, Species: MOUSE, Strain/Sex: SENCAR/FEMALE, Target Tissue: Type of Lesion: SKIN: PAPILLOMA, Dose [Carcinogen]: 10 NMOL IN 0.2 ML ACETONE APPLIED TO BACK ONCE.
  tumour outcome (control, treated, inhibition, significance): 100%, 60%, 40%, not calculated
Carcinogen: 7,12-DIMETHYLBENZ[A]ANTHRACENE, 57-97-6, Dose [Inhibitor]: 0, 44 NMOL IN 0.2 ML ACETONE APPLIED TO BACK ONCE 5 MIN PRIOR TO CARCINOGEN DOSE (STUDY DURATION: 26 WK), Route [Inhibitor]: DERMAL, Species: MOUSE, Strain/Sex: SENCAR/FEMALE, Target Tissue: Type of Lesion: SKIN: PAPILLOMA, Dose [Carcinogen]: 10 NMOL IN 0.2 ML ACETONE APPLIED TO BACK ONCE.
  tumour outcome (control, treated, inhibition, significance): 100%, 35%, 65%, not calculated
Carcinogen: 7,12-DIMETHYLBENZ[A]ANTHRACENE, 57-97-6, Dose [Inhibitor]: 0, 440 NMOL IN 0.2 ML ACETONE APPLIED TO BACK ONCE 5 MIN PRIOR TO CARCINOGEN DOSE (STUDY DURATION: 20 WK), Route [Inhibitor]: DERMAL, Species: MOUSE, Strain/Sex: SENCAR/FEMALE, Target Tissue: Type of Lesion: SKIN: PAPILLOMA, Dose [Carcinogen]: 10 NMOL IN 0.2 ML ACETONE APPLIED TO BACK ONCE.
  tumour outcome (control, treated, inhibition, significance): 100%, 24%, 76%, not calculated
Carcinogen: 7,12-DIMETHYLBENZ[A]ANTHRACENE, 57-97-6, Dose [Inhibitor]: 0, 4400 NMOL IN 0.2 ML ACETONE APPLIED TO BACK ONCE., Route [Inhibitor]: DERMAL, Species: MOUSE, Strain/Sex: SENCAR/FEMALE, Target Tissue: Type of Lesion: SKIN: PAPILLOMA, Dose [Carcinogen]: 10 NMOL IN 0.2 ML ACETONE APPLIED TO BACK ONCE.
  tumour outcome (control, treated, inhibition, significance): 100%, 0%, 100%, not calculated
Carcinogen: BENZO[A]PYRENE, 50-32-8, Dose [Inhibitor]: 0, 22 NMOL IN 0.2 ML ACETONE APPLIED TO BACK ONCE 5 MIN PRIOR TO CARCINOGEN DOSE (STUDY DURATION: 26 WK), Route [Inhibitor]: DERMAL, Species: MOUSE, Strain/Sex: SENCAR/FEMALE, Target Tissue: Type of Lesion: SKIN: PAPILLOMA, Dose [Carcinogen]: 200 NMOL IN 0.2 ML ACETONE APPLIED TO BACK ONCE.
  tumour outcome (control, treated, inhibition, significance): 100%, 91%, 9%, not calculated
Carcinogen: BENZO[A]PYRENE, 50-32-8, Dose [Inhibitor]: 0, 44 NMOL IN 0.2 ML ACETONE APPLIED TO BACK ONCE 5 MIN PRIOR TO CARCINOGEN DOSE (STUDY DURATION: 26 WK), Route [Inhibitor]: DERMAL, Species: MOUSE, Strain/Sex: SENCAR/FEMALE, Target Tissue: Type of Lesion: SKIN: PAPILLOMA, Dose [Carcinogen]: 200 NMOL IN 0.2 ML ACETONE APPLIED TO BACK ONCE.
  tumour outcome (control, treated, inhibition, significance): 100%, 96%, 4%, not calculated
Carcinogen: BENZO[A]PYRENE, 50-32-8, Dose [Inhibitor]: 0, 440 NMOL IN 0.2 ML ACETONE APPLIED TO BACK ONCE 5 MIN PRIOR TO CARCINOGEN DOSE (STUDY DURATION: 26 WK), Route [Inhibitor]: DERMAL, Species: MOUSE, Strain/Sex: SENCAR/FEMALE, Target Tissue: Type of Lesion: SKIN: PAPILLOMA, Dose [Carcinogen]: 200 NMOL IN 0.2 ML ACETONE APPLIED TO BACK ONCE.
  tumour outcome (control, treated, inhibition, significance): 100%, 74%, 26%, not calculated
Carcinogen: BENZO[A]PYRENE, 50-32-8, Dose [Inhibitor]: 0, 4400 NMOL IN 0.2 ML ACETONE APPLIED TO BACK ONCE 5 MIN PRIOR TO CARCINOGEN DOSE (STUDY DURATION: 20 WK), Route [Inhibitor]: DERMAL, Species: MOUSE, Strain/Sex: SENCAR/FEMALE, Target Tissue: Type of Lesion: SKIN: PAPILLOMA, Dose [Carcinogen]: 200 NMOL IN 0.2 ML ACETONE APPLIED TO BACK ONCE.
  tumour outcome (control, treated, inhibition, significance): 75%, 59%, 21%, not calculated
Carcinogen: BENZO[A]PYRENE, 50-32-8, Dose [Inhibitor]: 0, 4400 NMOL IN 0.2 ML ACETONE APPLIED TO BACK ONCE 5 MIN PRIOR TO CARCINOGEN DOSE (STUDY DURATION: 26 WK), Route [Inhibitor]: DERMAL, Species: MOUSE, Strain/Sex: SENCAR/FEMALE, Target Tissue: Type of Lesion: SKIN: PAPILLOMA, Dose [Carcinogen]: 200 NMOL IN 0.2 ML ACETONE APPLIED TO BACK ONCE.
  tumour outcome (control, treated, inhibition, significance): 100%, 71%, 29%, not calculated
Carcinogen: BENZO[A]PYRENE, 50-32-8, Dose [Inhibitor]: 0, 22000 NMOL IN 0.2 ML ACETONE APPLIED TO BACK ONCE 5 MIN PRIOR TO CARCINOGEN DOSE (STUDY DURATION: 20 WK), Route [Inhibitor]: DERMAL, Species: MOUSE, Strain/Sex: SENCAR/FEMALE, Target Tissue: Type of Lesion: SKIN: PAPILLOMA, Dose [Carcinogen]: 200 NMOL IN 0.2 ML ACETONE APPLIED TO BACK ONCE.
  tumour outcome (control, treated, inhibition, significance): 75%, 35%, 53%, not calculated
Carcinogen: BENZO[A]PYRENE, 50-32-8, Dose [Inhibitor]: 0, 44000 NMOL IN 0.2 ML ACETONE APPLIED TO BACK ONCE 5 MIN PRIOR TO CARCINOGEN DOSE (STUDY DURATION: 20 WK), Route [Inhibitor]: DERMAL, Species: MOUSE, Strain/Sex: SENCAR/FEMALE, Target Tissue: Type of Lesion: SKIN: PAPILLOMA, Dose [Carcinogen]: 200 NMOL IN 0.2 ML ACETONE APPLIED TO BACK ONCE.
  tumour outcome (control, treated, inhibition, significance): 75%, 22%, 71%, not calculated
Carcinogen: N-METHYL-N'-NITRO-N-NITROSOGUANIDINE, 70-25-7, Dose [Inhibitor]: 0, 4400 NMOL IN 0.2 ML ACETONE APPLIED TO BACK ONCE 5 MIN PRIOR TO CARCINOGEN DOSE (STUDY DURATION: 20 WK), Route [Inhibitor]: DERMAL, Species: MOUSE, Strain/Sex: SENCAR/FEMALE, Target Tissue: Type of Lesion: SKIN: PAPILLOMA, Dose [Carcinogen]: 2500 NMOL IN 0.2 ML ACETONE APPLIED TO BACK ONCE.
  tumour outcome (control, treated, inhibition, significance): 78%, 78%, 0%, not significant

## CC#C[C@]1(O)CC[C@H]2[C@@H]3CCC4=CC(=O)CCC4=C3[C@@H](c3ccc(N(C)C)cc3)C[C@@]21C
Carcinogen: 7,12-Dimethylbenz(a)anthracene (57-97-6), Dose [Inhibitor]: 10 mg administered daily for 28 days, Route [Inhibitor]: Subcutaneous, Species: Rat, Strain/Sex: Sprague-Dawley/Female, Target Tissue: Type of Lesion: Mammary gland: Adenocarcinoma and papillary carcinoma, Dose [Carcinogen]: 10 mg/kg once at 50 days of age, Promoter: None
  tumour outcome (control, treated, inhibition, significance): 12/13 (92%), 13/14 (93%), 0% ns

## CC/C=C\C/C=C\C/C=C\CCCCCCCC(=O)O
Carcinogen: 7,12-DIMETHYLBENZ[A]ANTHRACENE, 57-97-6, Dose [Inhibitor]: 0, 16 NMOL IN 0.1 ML ACETONE 2/WK FOR 20 WK APPLIED 40 MIN PRIOR TO EACH PROMOTER DOSE (STUDY DURATION: 21 WK), Route [Inhibitor]: DERMAL, Species: MOUSE, Strain/Sex: ICR/FEMALE, Target Tissue: Type of Lesion: SKIN: TUMOR, Dose [Carcinogen]: 0.19 UMOL IN 0.1 ML ACETONE ONCE, Promoter: 12-O-TETRADECANOYLPHORBOL-13-ACETATE, 16561-29-8
  tumour outcome (control, treated, inhibition, significance): 87%, 80%, 8%, not significant
Carcinogen: 7,12-DIMETHYLBENZ[A]ANTHRACENE, 57-97-6, Dose [Inhibitor]: 0, 160 NMOL IN 0.1 ML ACETONE 2/WK FOR 20 WK APPLIED 40 MIN PRIOR TO EACH PROMOTER DOSE (STUDY DURATION: 21 WK), Route [Inhibitor]: DERMAL, Species: MOUSE, Strain/Sex: ICR/FEMALE, Target Tissue: Type of Lesion: SKIN: TUMOR, Dose [Carcinogen]: 0.19 UMOL IN 0.1 ML ACETONE ONCE, Promoter: 12-O-TETRADECANOYLPHORBOL-13-ACETATE, 16561-29-8
  tumour outcome (control, treated, inhibition, significance): 87%, 47%, 46%, p<0.005
